Data from ChEMBL document CHEMBL1157055, “Limonoids and tirucallane derivatives from the seeds of a krishna mangrove, Xylocarpus moluccensis” (2010).
Active and inactive are the calls of the source. The calls are words filed in the database; no cut-off is given here.

What was measured:
[1] = system: Brontispa longissima; experiment: Insecticidal activity against Brontispa longissima Gestro at 100 ug/ml after 96 hrs; assay type: functional
[2] = system: Brontispa longissima; experiment: Insecticidal activity against Brontispa longissima Gestro at 100 ug/ml after 72 hrs; assay type: functional
[3] = system: Brontispa longissima; experiment: Insecticidal activity against Brontispa longissima Gestro at 100 ug/ml; assay type: functional, organism-based

CC[C@H](C)C(=O)O[C@@]12C[C@]3(C)[C@H](OC(=O)C(C)C)[C@]1(O)C(=O)C1=C(CC[C@]4(C)C1=CC(=O)O[C@H]4c1ccoc1)[C@]2(C)[C@H]3CC(=O)OC [MOLUCCENSINS H] gave an Activity [1] of 27.6% and an Activity [2] of 20.7%.
CC[C@H](C)C(=O)O[C@H]1[C@@]2(C)C[C@@]3(OC(=O)[C@@H](C)CC)[C@](C)([C@H]4CC[C@]5(C)C(=C4C(=O)[C@@]13O)CC(=O)O[C@H]5c1ccoc1)[C@H]2CC(=O)OC was tested, and the Activity [3] was “inactive”.
CC[C@H](C)C(=O)O[C@@]12C(=O)C3=C(CC[C@]4(C)C3=CC(=O)O[C@H]4c3ccoc3)[C@]3(C)[C@@H](CC(=O)OC)[C@](C)(C[C@]13O)[C@@H]2OC(=O)C(C)C was tested, and the Activity [3] was “inactive”.
For CC[C@H](C)C(=O)O[C@@]12C(=O)C3=C4CC(=O)O[C@@H](c5ccoc5)[C@]4(C)CC[C@@H]3[C@]3(C)[C@@H](CC(=O)OC)[C@](C)(C[C@@]31O)[C@@H]2OC(=O)C(C)C, the Activity [3] was “inactive”.
